# Literature values in patent publication US20090048334A1, “Sodium ascorbate solubilisate” (priority 2004, published 2009).
# Settings: for content of the agent in an aqueous solution: over an extended period of time
"added ascorbic acid present (aqueous ascorbic acid solution, after 30 days)",content of the agent in an aqueous solution,Structure (SMILES)
approximately 70%,–,O=C1O[C@H]([C@@H](O)CO)C(O)=C1O [ascorbic acid]
–,remains constant,CCCCCCCCCCCCCCCC(=O)OC[C@H](O)[C@H]1OC(=O)C(O)=C1O [ascorbylpalmitate]
–,remains constant,O=C1O[C@H]([C@@H](O)CO)C([O-])=C1OP(=O)([O-])[O-].[Na+].[Na+].[Na+] [sodium ascorbic phosphate]
